Results reported in patent US7157620B2, “Enhanced transformation and regeneration of transformed embryogenic pine tissue” (Mead Westvaco Corporation, priority 2000, dated 2007).

What was measured:
[1] = system: P. rigida hybrid embryogenic cell line; test: Effect of ABA in preparation, recovery and selection media on transformants after Agrobacterium inoculation; type: cell-based; details: line H1
Text: (§1) Seven loblolly pine cell lines or hybrid cell lines from seven widely diverse genetic backgrounds were used which had been grown, maintained, and transformed using Agrobacterium as described in Example 1 above except that the preparation medium, used for preparation and co-cultivation of the cells, either contained or lacked ABA. Following eradication using wash medium as described in Example 5 above, polyester support membranes bearing approximately 0.1 g of embryogenic tissue were divided onto recovery media either containing or lacking ABA. […] Concentrations of ABA used in all these media were 0, 10, and 30 mg/L.
(§2) Cells were maintained on the selection media, with transfer of the polyester support membranes to fresh selection media of the same composition, every two weeks for a total of eight weeks of selection. […] The cells were also checked for the presence of sequences by PCR amplification using primers specific for both the uidA and nptII transgenes, techniques well known to those skilled in the art of plant transformation.

[2] = system: P. taeda embryogenic cell lines; test: as above; type: cell-based, Pinus taeda
Text: as §1, §2

Loblolly pine cell lines = test: ABA in selection media after biolistic transformation; type: cell-based, Pinus taeda
Text: Loblolly pine cell lines were used which had been grown and maintained as described in Example 1 above, and prepared for biolistic transformation as described in Example 4 above. Following bombardment the support membranes bearing the bombarded embryogenic cells were transferred to DCR2 maintenance media for one week. Following this the support membranes bearing the bombarded embryogenic cells were divided among plates containing gelled DCR selection medium either with or without the addition of 10 mg/l abscisic acid (ABA), and cultured for three weeks. Cells selected on either type of selection medium during this first selection period on selection medium containing ABA were then divided among plates with and without ABA and cultured for a further three weeks. The same occurred in the next transfer, resulting in groups of cells that had been selected entirely in the absence of ABA, entirely in the presence of ABA, or in the presence of ABA for one of the three three-week selection periods.

With `CC1=CC(=O)CC(C)(C)[C@@]1(O)/C=C/C(C)=C\C(=O)O` [ABA, abscisic acid] the “Average (n = 12) number of transformants observed per selection plate” value (shortened to “Average (n = 12) number … per selection plate”) ([1]; ABA mg/l preparation/recovery/selection medium 0/0/10) was 27.0, the “Average (n = 12) number … per selection plate” value ([1]; ABA mg/l preparation/recovery/selection medium 0/0/30) was 21.1 and the “Average (n = 12) number … per selection plate” value ([1]; ABA mg/l preparation/recovery/selection medium 0/10/10) was 19.0. The “Average (n = 12) number … per selection plate” value ([1]; ABA mg/l preparation/recovery/selection medium 0/10/30) was 21.6, the “Average (n = 12) number … per selection plate” value ([1]; ABA mg/l preparation/recovery/selection medium 0/30/30) was 15.1 and the “Average (n = 12) number … per selection plate” value ([1]; ABA mg/l preparation/recovery/selection medium 10/10/10) was 21.9. The “Average (n = 12) number … per selection plate” value ([1]; ABA mg/l preparation/recovery/selection medium 30/10/10) was 22.9, the “Average (n = 12) number … per selection plate” value ([1]; ABA mg/l preparation/recovery/selection medium 30/30/30) was 21.8 and the “effect of ABA in the preparation medium on the observation of transformants” value ([2]; 10 or 30 mg/L ABA) was “neutral or beneficial”. The “necrotic foci in somatic embryogenic masses versus media without ABA” value ([2]; 10 or 30 mg/L ABA during and after co-cultivation, all lines) was “fewer necrotic foci”, the “Average (n = 12) number … per selection plate” value ([2]; line P1, ABA mg/l preparation/recovery/selection medium 0/0/10) was 0.3 and the “Average (n = 12) number … per selection plate” value ([2]; line P1, ABA mg/l preparation/recovery/selection medium 0/0/30) was 0.0. The “Average (n = 12) number … per selection plate” value ([2]; line P1, ABA mg/l preparation/recovery/selection medium 0/10/10) was 0.0, the “Average (n = 12) number … per selection plate” value ([2]; line P1, ABA mg/l preparation/recovery/selection medium 0/10/30) was 0.1 and the “Average (n = 12) number … per selection plate” value ([2]; line P1, ABA mg/l preparation/recovery/selection medium 0/30/30) was 0.8. For the same compound, the “Average (n = 12) number … per selection plate” value ([2]; line P1, ABA mg/l preparation/recovery/selection medium 10/10/10) was 1.3, the “Average (n = 12) number … per selection plate” value ([2]; line P1, ABA mg/l preparation/recovery/selection medium 30/10/10) was 0.3 and the “Average (n = 12) number … per selection plate” value ([2]; line P1, ABA mg/l preparation/recovery/selection medium 30/30/30) was 0.4. For the same compound, the “Average (n = 12) number … per selection plate” value ([2]; line P2, ABA mg/l preparation/recovery/selection medium 0/0/10) was 5.8, the “Average (n = 12) number … per selection plate” value ([2]; line P2, ABA mg/l preparation/recovery/selection medium 0/0/30) was 8.8 and the “Average (n = 12) number … per selection plate” value ([2]; line P2, ABA mg/l preparation/recovery/selection medium 0/10/10) was 1.0. For the same compound, the “Average (n = 12) number … per selection plate” value ([2]; line P2, ABA mg/l preparation/recovery/selection medium 0/10/30) was 0.3, the “Average (n = 12) number … per selection plate” value ([2]; line P2, ABA mg/l preparation/recovery/selection medium 0/30/30) was 5.2 and the “Average (n = 12) number … per selection plate” value ([2]; line P2, ABA mg/l preparation/recovery/selection medium 10/10/10) was 10.0. The “Average (n = 12) number … per selection plate” value ([2]; line P2, ABA mg/l preparation/recovery/selection medium 30/10/10) was 5.9, the “Average (n = 12) number … per selection plate” value ([2]; line P2, ABA mg/l preparation/recovery/selection medium 30/30/30) was 5.3 and the “Average (n = 12) number … per selection plate” value ([2]; line P3, ABA mg/l preparation/recovery/selection medium 0/0/10) was 21.7. For the same compound, the “Average (n = 12) number … per selection plate” value ([2]; line P3, ABA mg/l preparation/recovery/selection medium 0/0/30) was 22.3, the “Average (n = 12) number … per selection plate” value ([2]; line P3, ABA mg/l preparation/recovery/selection medium 0/10/10) was 23.3 and the “Average (n = 12) number … per selection plate” value ([2]; line P3, ABA mg/l preparation/recovery/selection medium 0/10/30) was 26.0. The “Average (n = 12) number … per selection plate” value ([2]; line P3, ABA mg/l preparation/recovery/selection medium 0/30/30) was 18.6, the “Average (n = 12) number … per selection plate” value ([2]; line P3, ABA mg/l preparation/recovery/selection medium 10/10/10) was 22.6 and the “Average (n = 12) number … per selection plate” value ([2]; line P3, ABA mg/l preparation/recovery/selection medium 30/10/10) was 21.6. For the same compound, the “Average (n = 12) number … per selection plate” value ([2]; line P3, ABA mg/l preparation/recovery/selection medium 30/30/30) was 21.1, the “Average (n = 12) number … per selection plate” value ([2]; line P4, ABA mg/l preparation/recovery/selection medium 0/0/10) was 27.5 and the “Average (n = 12) number … per selection plate” value ([2]; line P4, ABA mg/l preparation/recovery/selection medium 0/0/30) was 34.9. For the same compound, the “Average (n = 12) number … per selection plate” value ([2]; line P4, ABA mg/l preparation/recovery/selection medium 0/10/10) was 28.8, the “Average (n = 12) number … per selection plate” value ([2]; line P4, ABA mg/l preparation/recovery/selection medium 0/10/30) was 30.9 and the “Average (n = 12) number … per selection plate” value ([2]; line P4, ABA mg/l preparation/recovery/selection medium 0/30/30) was 28.6. For the same compound, the “Average (n = 12) number … per selection plate” value ([2]; line P4, ABA mg/l preparation/recovery/selection medium 10/10/10) was 27.8, the “Average (n = 12) number … per selection plate” value ([2]; line P4, ABA mg/l preparation/recovery/selection medium 30/10/10) was 22.7 and the “Average (n = 12) number … per selection plate” value ([2]; line P4, ABA mg/l preparation/recovery/selection medium 30/30/30) was 27.3. The “Average (n = 12) number … per selection plate” value ([2]; line P5, ABA mg/l preparation/recovery/selection medium 0/0/10) was 18.1, the “Average (n = 12) number … per selection plate” value ([2]; line P5, ABA mg/l preparation/recovery/selection medium 0/0/30) was 5.5 and the “Average (n = 12) number … per selection plate” value ([2]; line P5, ABA mg/l preparation/recovery/selection medium 0/10/10) was 2.4. For the same compound, the “Average (n = 12) number … per selection plate” value ([2]; line P5, ABA mg/l preparation/recovery/selection medium 0/10/30) was 7.2, the “Average (n = 12) number … per selection plate” value ([2]; line P5, ABA mg/l preparation/recovery/selection medium 0/30/30) was 3.3 and the “Average (n = 12) number … per selection plate” value ([2]; line P5, ABA mg/l preparation/recovery/selection medium 10/10/10) was 10.3. For the same compound, the “Average (n = 12) number … per selection plate” value ([2]; line P5, ABA mg/l preparation/recovery/selection medium 30/10/10) was 11.3, the “Average (n = 12) number … per selection plate” value ([2]; line P5, ABA mg/l preparation/recovery/selection medium 30/30/30) was 14.3 and the “Average (n = 12) number … per selection plate” value ([2]; line P6, ABA mg/l preparation/recovery/selection medium 0/0/10) was 3.9. The “Average (n = 12) number … per selection plate” value ([2]; line P6, ABA mg/l preparation/recovery/selection medium 0/0/30) was 3.3, the “Average (n = 12) number … per selection plate” value ([2]; line P6, ABA mg/l preparation/recovery/selection medium 0/10/10) was 3.2 and the “Average (n = 12) number … per selection plate” value ([2]; line P6, ABA mg/l preparation/recovery/selection medium 0/10/30) was 3.2. For the same compound, the “Average (n = 12) number … per selection plate” value ([2]; line P6, ABA mg/l preparation/recovery/selection medium 0/30/30) was 2.3, the “Average (n = 12) number … per selection plate” value ([2]; line P6, ABA mg/l preparation/recovery/selection medium 10/10/10) was 4.5 and the “Average (n = 12) number … per selection plate” value ([2]; line P6, ABA mg/l preparation/recovery/selection medium 30/10/10) was 3.1. For the same compound, the “Average (n = 12) number … per selection plate” value ([2]; line P6, ABA mg/l preparation/recovery/selection medium 30/30/30) was 2.3, the “transformants from a cell line of progeny of the P. taeda elite line 7–56” value (Loblolly pine cell lines; 10 mg/L ABA in selection medium) was “observed only on treatments that had contained ABA in the selection medium” and the “number of transformants obtained when ABA was present during the entire selection period” value (Loblolly pine cell lines; 10 mg/l ABA in DCR selection medium, nine weeks, all lines tested) was “equal to or greater than the number obtained for any other treatment”.
